For 33 compounds, IC50 results are on record in patent US8198299B2, “Cycloalkylidene and heterocycloalkylidene inhibitor compounds” (Gilead Sciences, Inc., priority 2008, dated 2012).

Each structure is given as a SMILES string.

Chain of HDAC 1 (Q13547 whole entry, species assumed): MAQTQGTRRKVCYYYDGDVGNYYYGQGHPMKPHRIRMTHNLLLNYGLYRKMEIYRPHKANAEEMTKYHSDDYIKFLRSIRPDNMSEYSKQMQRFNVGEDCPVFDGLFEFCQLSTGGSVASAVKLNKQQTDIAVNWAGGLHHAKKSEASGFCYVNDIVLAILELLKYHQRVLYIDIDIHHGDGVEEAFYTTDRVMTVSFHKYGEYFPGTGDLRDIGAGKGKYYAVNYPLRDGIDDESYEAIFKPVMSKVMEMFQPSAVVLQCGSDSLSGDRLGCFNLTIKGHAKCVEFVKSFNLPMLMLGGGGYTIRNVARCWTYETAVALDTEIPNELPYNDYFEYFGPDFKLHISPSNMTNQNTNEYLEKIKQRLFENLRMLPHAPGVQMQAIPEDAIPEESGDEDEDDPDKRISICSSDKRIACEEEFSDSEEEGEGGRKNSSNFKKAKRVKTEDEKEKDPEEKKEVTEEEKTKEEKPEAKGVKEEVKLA

This assay deals with HDAC 1 (Homo sapiens, UniProt Q13547). In words: HDAC 1 inhibition assay with about 3-hour enzyme/compound preincubation (fluorophore/quencher peptide substrate). Type of assay: biochemical. The settings on record: 3-hour preincubation of enzyme and compound at room temperature; read-out: HDAC 1 inhibitory activity (IC50 [μM]) (3-hour preincubation). How it is done:
HDAC inhibitory activity of the compound of Example 1 was measured by two types of assays in which HDAC 1 and 6 were used as a target molecule. The first assay was carried out without preincubation after addition of the enzyme. The test compound was suspended in and titrated in DMSO. It was then spotted into a 384-well test plate. The enzyme, HDAC 1 or 6, was diluted in assay buffer containing 25 mM Tris-HCl (pH 8.0), 137 mM NaCl, 2.7 mM KCl, and 0.01% Tween-20 and added to the pre-spotted compound. The peptide substrate containing a fluorophore/quencher pair was diluted in the same assay buffer and added to the compound/enzyme mix initiating the reaction. The reaction incubated at room temperature for about 45 minutes. A concentrated developer solution was diluted in the assay buffer, and added to the reaction. The reaction was incubated at room temperature for about 15 minutes and relative fluorescence was read on an instrument reader.
The second assay is similar to the first assay described above, except that preincubation is carried out for about 3 hours after the enzyme is introduced. The test compound was suspended in, and titrated in DMSO. It was then spotted into a 384-well test plate. The enzyme, HDAC 1 or 6, was diluted in the same assay buffer as used in the previous assay and added to the pre-spotted compound. The enzyme/compound mix was incubated at room temperature for about 3 hours. The peptide substrate containing a fluorophore/quencher pair was diluted in the assay buffer and added to the compound/enzyme mix initiating the reaction. The reaction incubated at room temperature for 45 minutes. A concentrated developer solution was diluted in the assay buffer, and added to the reaction. The reaction was incubated at room temperature for about 15 minutes and relative fluorescence was read on an instrument reader.
For `Nc1ccc(-c2ccc(F)cc2)cc1NC(=O)c1ccc(C2(c3nc(-c4cnccn4)cs3)CCOCC2)cc1` [Example 54, N-(4-amino-4′-fluorobiphenyl-3-yl)-4-(4-(4-(pyrazin-2-yl)thiazol-2-yl)tetrahydropyran-4-yl)benzamide], the IC50 was determined as 0.00625 µM.
To `Cc1nc2ccccn2c1-c1csc(C2(c3ccc(C(=O)Nc4ccccc4N)cc3)CCCC2)n1` [Example 7] belongs 0.008 µM.
To `O=C(NO)c1ccc(C2(c3nc(-c4cccnc4)cs3)CCOCC2)cc1` [Example 42, N-hydroxy-4-(4-(4-(pyridin-3-yl)thiazol-2-yl)tetrahydropyran-4-yl)benzamide] belongs 0.0351 µM; to `Nc1ccc(-c2cccs2)cc1NC(=O)c1ccc(C2(c3ncc(-c4cccnc4)s3)CCOCC2)cc1` [Example 51, N-(2-amino-5-(thiophen-2-yl)phenyl)-4-(4-(5-(pyridin-3-yl)thiazol-2-yl)tetrahydropyran-4-yl)benzamide], 0.0039 µM; to `Cc1nc2ccccn2c1-c1csc(C2(c3ccc(C(=O)Nc4ccccc4N)cc3)CC2)n1` [Example 1, N-(2-amino-phenyl)-4-{1-[4-(2-methyl-imidazo[1,2-a]pyridin-3-yl)-thiazol-2-yl]-cyclopropyl}-benzamide], 0.0239 µM.
As for `Nc1ccc(-c2cccs2)cc1NC(=O)c1ccc(C2(c3nccs3)CC2)cc1` [Example 50, N-(2-amino-5-(thiophen-2-yl)phenyl)-4-(1-(thiazol-2-yl)cyclopropyl)benzamide], the IC50 turned out to be 0.00262 µM.
As to `CCOc1csc(C2(c3ccc(C(=O)Nc4cc(-c5cccs5)ccc4N)cc3)CCOCC2)n1` [Example 37, N-(2-amino-5-(thiophen-2-yl)phenyl)-4-(4-(4-ethoxythiazol-2-yl)tetrahydropyran-4-yl)benzamide], the IC50 is 0.00388 µM.
To `Cc1nc(C2(c3ccc(C(=O)Nc4ccccc4N)cc3)CC2)sc1C(=O)N(C)C` [Example 4, 2-(1-(4-(2-aminophenylcarbamoyl)phenyl)cyclopropyl)-N,N-4-trimethylthiazole-5-carboxamide] belongs 0.331 µM; to `Nc1ccc(-c2ccc(F)cc2)cc1NC(=O)c1ccc(C2(c3nc4c(s3)COCC4)CC2)cc1` [Example 58, N-(4-amino-4′-fluorobiphenyl-3-yl)-4-(1-(6,7-dihydropyrano[4,3-d]thiazol-2-yl)cyclopropyl)benzamide], 0.0208 µM.
Regarding `Nc1ccccc1NC(=O)c1ccc(C2(c3nc(-c4cnccn4)cs3)CC2)cc1` [Example 55, N-(2-aminophenyl)-4-(1-(4-(pyrazin-2-yl)thiazol-2-yl)cyclopropyl)benzamide], the IC50 worked out at 0.0444 µM.
As for `CN1CCN(c2ccc(-c3csc(C4(c5ccc(C(=O)Nc6ccccc6N)cc5)CCOCC4)n3)cc2)CC1` [Example 47, N-(2-aminophenyl)-4-(4-(4-(4-(4-methylpiperazin-1-yl)phenyl)thiazol-2-yl)tetrahydropyran-4-yl)benzamide], the IC50 came out at 0.00576 µM.
`CN1CCN(c2ccc(-c3csc(C4(c5ccc(C(=O)NO)cc5)CCOCC4)n3)cn2)CC1` [Example 44, N-hydroxy-4-(4-(4-(6-(4-methylpiperazin-1-yl)pyridin-3-yl)thiazol-2-yl)tetrahydropyran-4-yl)benzamide]: the 50% inhibitory concentration (IC50) was 0.0071 µM.
With `O=C(NO)c1ccc(C2(c3nccs3)CCOCC2)cc1` [Example 43, N-hydroxy-4-(4-(thiazol-2-yl)tetrahydropyran-4-yl)benzamide], the half-maximal inhibitory concentration (IC50) is 0.363 µM.
For `Nc1ccc(F)cc1NC(=O)c1ccc(C2(c3nc(-c4cccnc4)cs3)CC2)cc1` [Example 19, N-(2-Amino-5-fluoro-phenyl)-4-[1-(4-pyridin-3-yl-thiazol-2-yl)-cyclopropyl]-benzamide] the value was 0.0518 µM; for `Nc1ccc(F)cc1NC(=O)c1ccc(C2(c3nc(-c4cccnc4)cs3)CCOCC2)cc1` [Example 23, N-(2-amino-5-fluorophenyl)-4-(4-(4-(pyridin-3-yl)thiazol-2-yl)tetrahydropyran-4-yl)benzamide], 0.032 µM; for `Nc1ccc(F)cc1NC(=O)c1ccc(C2(c3nc(-c4cnccn4)cs3)CCOCC2)cc1` [Example 57, N-(2-amino-5-fluorophenyl)-4-(4-(4-(pyrazin-2-yl)thiazol-2-yl)tetrahydropyran-4-yl)benzamide], 0.00774 µM.
To `Nc1ccc(-c2cccs2)cc1NC(=O)c1ccc(C2(c3nc(CN4CCOCC4)cs3)CCOCC2)cc1` [Example 33, N-(2-amino-5-(thiophen-2-yl)phenyl)-4-(4-(4-(morpholinomethyl)thiazol-2-yl)tetrahydropyran-4-yl)benzamide] belongs 0.0029 µM; to `Cc1ccc(-c2ccc(N)c(NC(=O)c3ccc(C4(c5nccs5)CCOCC4)cc3)c2)s1` [Example 46, N-(2-amino-5-(5-methylthiophen-2-yl)phenyl)-4-(4-(thiazol-2-yl)tetrahydropyran-4-yl)benzamide], 0.00749 µM.
For `CN1CCc2nc(C3(c4ccc(C(=O)Nc5cc(-c6cccs6)ccc5N)cc4)CCOCC3)sc2C1` [Example 21, N-(2-amino-5-(thiophen-2-yl)phenyl)-4-(4-(5-methyl-4,5,6,7-tetrahydrothiazolo[5,4-c]pyridin-2-yl)tetrahydropyran-4-yl)benzamide] the value was 0.006 µM.
Consider `Nc1ccc(-c2ccc(Cl)s2)cc1NC(=O)c1ccc(C2(c3nccs3)CCOCC2)cc1` [Example 45, N-(2-amino-5-(5-chlorothiophen-2-yl)phenyl)-4-(4-(thiazol-2-yl)tetrahydropyran-4-yl)benzamide], for which the concentration for half-maximal inhibition (IC50) came out at 0.00606 µM.
To `Cc1nc2ccccn2c1-c1csc(C2(c3ccc(C(=O)NO)cc3)CC2)n1` [Example 2, N-hydroxy-4-{1-[4-(2-methyl-imidazo[1,2-a]pyridin-3-yl)-thiazol-2-yl]-cyclopropyl}-benzamide] belongs 0.024 µM; to `Nc1ccccc1NC(=O)c1ccc(C2(c3nc4c(s3)CCCC4)CC2)cc1` [Example 11, N-(2-amino-phenyl)-4-[1-(4,5,6,7-tetrahydro-benzothiazol-2-yl)-cyclopropyl]-benzamide], 0.069 µM; to `Cc1cnc(C2(c3ccc(C(=O)Nc4cc(-c5ccc(F)cc5)ccc4N)cc3)CCOCC2)s1` [Example 63, N-(4-amino-4′-fluorobiphenyl-3-yl)-4-(4-(5-methylthiazol-2-yl)tetrahydropyran-4-yl)benzamide], 0.00428 µM.
For the compound `Nc1ccccc1NC(=O)c1ccc(C2(c3nc(-c4ccc(N5CCNCC5)nc4)cs3)CCOCC2)cc1` [Example 35, N-(2-aminophenyl)-4-(4-(4-(6-(piperazin-1-yl)pyridin-3-yl)thiazol-2-yl)tetrahydropyran-4-yl)benzamide], the IC50 was 0.0033 µM.
As for `Nc1ccccc1NC(=O)c1ccc(C2(c3nc(-c4ccc(N5CCCC5)nc4)cs3)CCOCC2)cc1` [Example 20, N-(2-aminophenyl)-4-(4-(4-(6-(pyrrolidin-1-yl)pyridin-3-yl)thiazol-2-yl)tetrahydropyran-4-yl)benzamide], the IC50 is 0.019 µM.
Regarding `O=C(NO)c1ccc(C2(c3nc(-c4cnccn4)cs3)CCOCC2)cc1` [Example 53, N-hydroxy-4-(4-(4-(pyrazin-2-yl)thiazol-2-yl)tetrahydropyran-4-yl)benzamide], the half-inhibitory concentration (IC50) was determined as 0.0979 µM.
On to `Nc1ccc(-c2ccc(F)cc2)cc1NC(=O)c1ccc(C2(c3ccccn3)CCOCC2)cc1` [Example 59, N-(4-amino-4′-fluorobiphenyl-3-yl)-4-(4-(pyridin-2-yl)tetrahydropyran-4-yl)benzamide], for which the 50% inhibitory concentration (IC50) amounted to 0.00231 µM.
For `CC(C)NC(=O)c1csc(C2(c3ccc(C(=O)Nc4ccccc4N)cc3)CC2)n1` [Example 10, 2-(1-(4-(2-aminophenylcarbamoyl)phenyl)cyclopropyl)-N-isopropylthiazole-4-carboxamide] the value was 0.279 µM; for `COCCOCc1csc(C2(c3ccc(C(=O)Nc4cc(-c5cccs5)ccc4N)cc3)CCOCC2)n1` [Example 32, N-(2-amino-5-(thiophen-2-yl)phenyl)-4-(4-(4-((2-methoxyethoxy)methyl)thiazol-2-yl)tetrahydropyran-4-yl)benzamide], 0.0025 µM.
To `CCOc1csc(C2(c3ccc(C(=O)Nc4cc(-c5ccc(F)cc5)ccc4N)cc3)CCOCC2)n1` [Example 40, N-(4-amino-4′-fluorobiphenyl-3-yl)-4-(4-(4-ethoxythiazol-2-yl)tetrahydropyran-4-yl)benzamide] belongs 0.00639 µM; to `Cc1nc(C2(c3ccc(C(=O)Nc4cc(-c5ccc(F)cc5)ccc4N)cc3)CCOCC2)sc1C` [Example 62, N-(4-amino-4′-fluorobiphenyl-3-yl)-4-(4-(4,5-dimethylthiazol-2-yl)tetrahydropyran-4-yl)benzamide], 0.00896 µM; to `Cc1ccc(-c2ccc(N)c(NC(=O)c3ccc(C4(c5nccs5)CC4)cc3)c2)s1` [Example 52, N-(2-amino-5-(5-methylthiophen-2-yl)phenyl)-4-(1-(thiazol-2-yl)cyclopropyl)benzamide], 0.00792 µM.
Regarding `CCOC(=O)N1CCc2nc(C3(c4ccc(C(=O)Nc5ccccc5N)cc4)CC3)sc2C1` [Example 12], the IC50 was found to be 0.016 µM.

Usually IC50 stands for the concentration that gives 50% inhibition.
